Data from ChEMBL document CHEMBL2311352, “Discovery of 4-phenyl-2-phenylaminopyridine based TNIK inhibitors” (Bioorg Med Chem Lett, 2013).
pIC50, pKd: −log10 of the molar value. In brackets after ≈: the same amount, converted by molar mass. Each block holds one compound with its values, some of them ahead of it.

Experiments:
[1] = target: T1, TRAF2 and NCK-interacting protein kinase (Homo sapiens, UniProt Q9UKE5); assay: Inhibition of TNIK (unknown origin) by ADP glo luminescent assay
Target sequence in this assay (Q9UKE5 whole entry): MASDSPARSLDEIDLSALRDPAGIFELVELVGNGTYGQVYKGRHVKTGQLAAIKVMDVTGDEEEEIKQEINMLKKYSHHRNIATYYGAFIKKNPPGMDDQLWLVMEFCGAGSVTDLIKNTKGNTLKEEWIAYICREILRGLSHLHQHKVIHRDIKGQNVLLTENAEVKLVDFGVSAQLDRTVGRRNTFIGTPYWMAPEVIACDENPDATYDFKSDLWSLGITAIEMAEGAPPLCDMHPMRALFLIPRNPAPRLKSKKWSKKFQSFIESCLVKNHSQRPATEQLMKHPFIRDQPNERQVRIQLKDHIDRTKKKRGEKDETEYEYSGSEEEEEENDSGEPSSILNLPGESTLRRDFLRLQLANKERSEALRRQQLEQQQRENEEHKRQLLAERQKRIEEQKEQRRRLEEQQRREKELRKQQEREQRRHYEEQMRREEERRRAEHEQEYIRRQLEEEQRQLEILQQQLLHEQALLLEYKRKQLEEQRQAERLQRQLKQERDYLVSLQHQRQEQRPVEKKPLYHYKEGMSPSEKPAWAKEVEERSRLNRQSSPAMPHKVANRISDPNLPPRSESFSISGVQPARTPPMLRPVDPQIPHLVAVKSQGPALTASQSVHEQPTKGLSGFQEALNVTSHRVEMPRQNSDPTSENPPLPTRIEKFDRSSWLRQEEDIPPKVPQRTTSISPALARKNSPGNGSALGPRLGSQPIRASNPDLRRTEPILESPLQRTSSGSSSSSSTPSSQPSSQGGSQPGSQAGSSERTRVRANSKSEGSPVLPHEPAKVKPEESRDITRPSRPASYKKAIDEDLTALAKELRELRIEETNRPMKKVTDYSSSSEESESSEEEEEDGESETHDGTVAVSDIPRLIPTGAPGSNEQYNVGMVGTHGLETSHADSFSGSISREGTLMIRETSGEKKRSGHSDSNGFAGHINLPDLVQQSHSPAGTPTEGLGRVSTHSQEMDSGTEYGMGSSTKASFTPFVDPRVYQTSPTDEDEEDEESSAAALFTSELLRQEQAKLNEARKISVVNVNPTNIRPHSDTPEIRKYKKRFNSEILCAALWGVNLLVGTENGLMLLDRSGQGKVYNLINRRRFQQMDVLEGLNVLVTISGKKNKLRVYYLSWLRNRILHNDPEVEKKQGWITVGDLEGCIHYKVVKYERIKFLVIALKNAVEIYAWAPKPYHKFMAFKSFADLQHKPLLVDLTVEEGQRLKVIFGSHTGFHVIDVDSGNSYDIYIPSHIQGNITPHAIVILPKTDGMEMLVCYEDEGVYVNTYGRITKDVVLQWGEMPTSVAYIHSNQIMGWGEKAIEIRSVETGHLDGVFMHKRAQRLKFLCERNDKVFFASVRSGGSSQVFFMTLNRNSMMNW

[2] = Apparent permeability across apical to basolateral side in human Caco2 cells; assay type: ADME, cell-based; settings: Caco-2
[3] = target: T1, TRAF2 and NCK-interacting protein kinase; assay: Competitive binding affinity to TNIK (unknown origin) in presence of ATP
Target sequence in this assay (Q9UKE5 whole entry): as above

[4] = Apparent permeability across basolateral to apical side in human Caco2 cells; assay type: ADME, cell-based; settings: Caco-2
Caco-2 = assay: Ratio of apparent permeability across basolateral to apical side over apical to basolateral side in human Caco2 cells; assay type: ADME, cell-based
[5] = Solubility of the compound in phosphate buffer at pH 7.4; assay type: physicochemical
[6] = target: Voltage-gated inwardly rectifying potassium channel KCNH2 (Homo sapiens, UniProt Q12809); assay: Inhibition of human ERG by patch clamp assay
HeLa = assay: Cytotoxicity against wnt-inactivated human HeLa cells assessed as cell viability; assay type: functional, cell-based
[7] = target: T1, TRAF2 and NCK-interacting protein kinase; assay: Ratio of IC50 for TNIK-mediated TCF4/[…] transcription in human HCT116 cells to IC50 for TNIK (unknown origin); assay type: cell-based; settings: HCT-116
Target sequence in this assay (Q9UKE5 whole entry, looked up): as the sequence (Q9UKE5 whole entry) above

[8] = target: T1, TRAF2 and NCK-interacting protein kinase; assay: Inhibition of TNIK-mediated TCF4/[…] transcription in human HCT116 cells by beta-lactamase reporter gene assay; assay type: cell-based, HCT-116
Target sequence in this assay (Q9UKE5 whole entry): as above

HEK293 = assay: Cytotoxicity against wnt-inactivated human HEK293 cells assessed as cell viability; assay type: functional, cell-based
HCT-116 = assay: Cytotoxicity against wnt-activated human HCT116 cells assessed as cell viability; assay type: functional, cell-based
DLD-1 = assay: Cytotoxicity against wnt-activated human DLD1 cells assessed as cell viability; assay type: functional, cell-based
[9] = Inhibition of CBP binding to […] in human SW480 cells by immunoblot analysis; assay type: cell-based
[10] = target: T1, TRAF2 and NCK-interacting protein kinase; settings: 1 uM
Target sequence in this assay (Q9UKE5 whole entry, looked up): as the sequence (Q9UKE5 whole entry) above

[11] = target: Mitogen-activated protein kinase kinase kinase kinase 4 (Homo sapiens) (UniProt O95819); settings: 1 uM
[12] = target: Receptor-type tyrosine-protein kinase FLT3 (Homo sapiens) (UniProt P36888); assay: Inhibition of FLT3 (unknown origin) at 1 uM
[13] = target: Inhibitor of nuclear factor kappa-B kinase subunit epsilon (Homo sapiens) (UniProt Q14164); assay: Inhibition of IKKepsilon (unknown origin) at 1 uM
[14] = target: Serine/threonine-protein kinase Chk1 (Homo sapiens) (UniProt O14757); assay: Inhibition of CHK1 (unknown origin) at 1 uM
[15] = target: Macrophage colony-stimulating factor 1 receptor (Homo sapiens) (UniProt P07333); assay: Inhibition of FMS (unknown origin) at 1 uM
[16] = target: CDK6/cyclin D1 (Homo sapiens) (UniProt P24385+Q00534); assay: Inhibition of CDK6/Cyclin D1 (unknown origin) at 1 uM; assay type: protein-complex assay

Chain of Voltage-gated inwardly rectifying potassium channel KCNH2 (Q12809 whole entry): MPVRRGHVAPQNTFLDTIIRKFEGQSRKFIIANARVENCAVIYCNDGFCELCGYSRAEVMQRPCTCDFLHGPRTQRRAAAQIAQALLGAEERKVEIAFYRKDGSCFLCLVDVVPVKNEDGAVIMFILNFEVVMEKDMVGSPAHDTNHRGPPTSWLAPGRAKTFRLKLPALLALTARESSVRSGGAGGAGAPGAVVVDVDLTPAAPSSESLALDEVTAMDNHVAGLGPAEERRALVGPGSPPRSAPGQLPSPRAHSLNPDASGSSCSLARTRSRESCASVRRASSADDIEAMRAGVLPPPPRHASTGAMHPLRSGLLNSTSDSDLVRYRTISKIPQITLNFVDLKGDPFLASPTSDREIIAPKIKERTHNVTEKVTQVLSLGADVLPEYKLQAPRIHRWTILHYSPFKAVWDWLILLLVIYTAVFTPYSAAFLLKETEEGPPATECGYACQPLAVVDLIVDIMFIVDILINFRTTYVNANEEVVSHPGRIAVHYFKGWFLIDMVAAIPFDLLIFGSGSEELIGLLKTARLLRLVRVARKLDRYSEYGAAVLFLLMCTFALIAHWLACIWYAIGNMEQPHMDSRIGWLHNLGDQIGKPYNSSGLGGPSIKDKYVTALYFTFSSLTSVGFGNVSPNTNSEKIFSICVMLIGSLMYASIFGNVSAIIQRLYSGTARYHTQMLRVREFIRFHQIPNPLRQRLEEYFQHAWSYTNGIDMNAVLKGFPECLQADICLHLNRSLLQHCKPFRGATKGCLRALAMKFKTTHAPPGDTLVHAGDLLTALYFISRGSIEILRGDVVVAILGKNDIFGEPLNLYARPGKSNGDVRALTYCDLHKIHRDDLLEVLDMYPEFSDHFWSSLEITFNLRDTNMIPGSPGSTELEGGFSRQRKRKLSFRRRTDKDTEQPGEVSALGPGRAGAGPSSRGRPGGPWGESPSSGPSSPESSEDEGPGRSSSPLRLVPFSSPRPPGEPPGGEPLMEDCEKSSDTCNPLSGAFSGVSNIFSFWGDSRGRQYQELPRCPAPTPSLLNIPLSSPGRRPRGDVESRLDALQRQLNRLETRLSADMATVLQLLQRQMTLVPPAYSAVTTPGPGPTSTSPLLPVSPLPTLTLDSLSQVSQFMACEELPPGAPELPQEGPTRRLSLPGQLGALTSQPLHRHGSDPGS
Chain of Serine/threonine-protein kinase Chk1 (Homo sapiens) (O14757 whole entry): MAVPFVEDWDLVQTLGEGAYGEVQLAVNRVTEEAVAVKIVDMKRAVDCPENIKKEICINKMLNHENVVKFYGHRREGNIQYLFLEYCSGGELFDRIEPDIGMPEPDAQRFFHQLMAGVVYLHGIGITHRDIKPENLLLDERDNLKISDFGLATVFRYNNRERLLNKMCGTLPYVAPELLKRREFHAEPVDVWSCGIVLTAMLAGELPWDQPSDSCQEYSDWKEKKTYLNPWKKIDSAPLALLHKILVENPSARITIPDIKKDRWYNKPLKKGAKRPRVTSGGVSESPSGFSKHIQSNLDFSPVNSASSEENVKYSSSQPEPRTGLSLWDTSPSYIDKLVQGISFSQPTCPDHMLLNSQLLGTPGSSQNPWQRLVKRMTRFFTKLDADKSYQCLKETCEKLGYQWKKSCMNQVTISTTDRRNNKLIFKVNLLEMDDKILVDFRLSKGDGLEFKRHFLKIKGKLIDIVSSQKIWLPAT
Chain of Receptor-type tyrosine-protein kinase FLT3 (Homo sapiens) (P36888 whole entry): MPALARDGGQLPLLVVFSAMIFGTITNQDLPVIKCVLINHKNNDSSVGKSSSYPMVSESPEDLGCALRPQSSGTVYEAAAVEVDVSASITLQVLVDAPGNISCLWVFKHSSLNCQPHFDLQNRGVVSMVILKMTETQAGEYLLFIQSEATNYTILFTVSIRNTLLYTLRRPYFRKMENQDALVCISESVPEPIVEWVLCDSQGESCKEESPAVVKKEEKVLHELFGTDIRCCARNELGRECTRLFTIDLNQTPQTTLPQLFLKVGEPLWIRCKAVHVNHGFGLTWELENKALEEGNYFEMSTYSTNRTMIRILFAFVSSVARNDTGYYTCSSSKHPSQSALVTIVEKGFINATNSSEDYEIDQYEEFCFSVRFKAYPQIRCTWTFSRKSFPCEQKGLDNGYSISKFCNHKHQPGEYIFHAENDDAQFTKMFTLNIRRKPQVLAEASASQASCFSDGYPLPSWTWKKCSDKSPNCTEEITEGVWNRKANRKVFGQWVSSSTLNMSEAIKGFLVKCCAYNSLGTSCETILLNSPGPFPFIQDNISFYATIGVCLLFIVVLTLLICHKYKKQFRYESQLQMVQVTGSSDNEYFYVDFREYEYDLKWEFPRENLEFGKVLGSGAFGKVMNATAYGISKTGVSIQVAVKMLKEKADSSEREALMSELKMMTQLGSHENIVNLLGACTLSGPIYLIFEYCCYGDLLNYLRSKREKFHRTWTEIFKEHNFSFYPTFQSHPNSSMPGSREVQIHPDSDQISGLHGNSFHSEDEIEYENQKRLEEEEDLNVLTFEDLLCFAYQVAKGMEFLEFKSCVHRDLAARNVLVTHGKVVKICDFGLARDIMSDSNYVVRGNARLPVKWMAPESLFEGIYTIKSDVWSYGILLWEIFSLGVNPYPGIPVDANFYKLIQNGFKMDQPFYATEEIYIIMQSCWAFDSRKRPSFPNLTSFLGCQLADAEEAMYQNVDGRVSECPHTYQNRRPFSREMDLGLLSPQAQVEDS
Chain of Inhibitor of nuclear factor kappa-B kinase subunit epsilon (Homo sapiens) (Q14164 whole entry): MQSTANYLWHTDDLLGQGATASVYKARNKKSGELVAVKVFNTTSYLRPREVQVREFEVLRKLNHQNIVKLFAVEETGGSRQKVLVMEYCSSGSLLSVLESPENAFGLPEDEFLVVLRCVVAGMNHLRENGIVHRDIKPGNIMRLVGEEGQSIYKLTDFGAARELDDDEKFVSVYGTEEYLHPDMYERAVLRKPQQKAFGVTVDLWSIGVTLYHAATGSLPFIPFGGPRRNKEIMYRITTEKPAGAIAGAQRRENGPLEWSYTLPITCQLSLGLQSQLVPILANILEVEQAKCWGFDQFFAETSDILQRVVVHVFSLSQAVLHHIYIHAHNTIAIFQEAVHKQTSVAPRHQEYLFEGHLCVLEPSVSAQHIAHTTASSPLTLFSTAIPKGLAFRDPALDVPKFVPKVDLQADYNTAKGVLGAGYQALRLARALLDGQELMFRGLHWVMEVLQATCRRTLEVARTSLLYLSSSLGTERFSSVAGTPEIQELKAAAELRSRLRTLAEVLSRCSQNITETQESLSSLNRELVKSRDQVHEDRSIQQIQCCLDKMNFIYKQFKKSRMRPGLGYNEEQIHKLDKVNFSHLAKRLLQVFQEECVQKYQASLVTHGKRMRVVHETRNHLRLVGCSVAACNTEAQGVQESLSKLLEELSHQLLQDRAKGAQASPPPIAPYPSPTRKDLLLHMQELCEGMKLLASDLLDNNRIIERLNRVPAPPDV

pIC50 [1]: 6.54
Papp A→B [2]: 20.5 ×10⁻⁶ cm/s
pKd [3]: 6.66
Papp B→A [4]: 19.1 ×10⁻⁶ cm/s
Ratio (Caco-2): 0.93
solubility [5]: 94 µM (≈ 38.9 µg/mL)
SMILES: COc1cc(Nc2cc(-c3cccc(CC#N)c3)ccn2)ccc1N1CCN(C)CC1

pIC50 [1]: 7.39
SMILES: COc1ccc(Cl)cc1-c1ccnc(Nc2ccc(N3CCOCC3)c(OC)c2)c1
pIC50 [6]: 4.70

pIC50 [1]: 8.52
SMILES: COc1ccc(C#N)cc1-c1ccnc(Nc2ccc(N3CCN(C)CC3)c(OC)c2)c1

pIC50 [1]: 7.26
SMILES: COc1cc(Nc2cc(-c3cccc(C#N)c3)ccn2)ccc1N1CCOCC1
pIC50 [6]: 5.11

pIC50 [1]: 7.96
Ratio IC50 [7]: 280
pIC50 [8]: 5.51
SMILES: COc1ccc(C#N)cc1-c1ccnc(Nc2ccc(N3CCC(N(C)C)CC3)c(F)c2)c1
pIC50 (HeLa): 5.92
pIC50 (HEK293): 7.37
pIC50 (HCT-116): 6.59
pIC50 (DLD-1): 6.48

pIC50 [9]: 5.89
SMILES: O=C1[C@H](Cc2ccc(O)cc2)N2C(=O)CCN(C(=O)NCc3ccccc3)[C@H]2CN1Cc1cccc2ccccc12

pIC50 [1]: 8.30
Ratio IC50 [7]: > 6000
pIC50 [8]: < 4.52
SMILES: COc1ccc(C#N)cc1-c1ccnc(Nc2ccc(N3CCN(C)CC3)cc2)c1

pIC50 [1]: 6.56
SMILES: COc1ccc(C(F)(F)F)cc1-c1ccnc(Nc2ccc(N3CCOCC3)c(OC)c2)c1

SMILES: COc1ccc(C#N)cc1-c1ccnc(Nc2ccc(N3CCOCC3)c(OC)c2)c1
pIC50 (HeLa): 5.17
pIC50 (HEK293): 6.98
pIC50 (HCT-116): 5.64
pIC50 (DLD-1): 5.24

pIC50 [1]: 8.40
Ratio IC50 [7]: 2000
pIC50 [8]: 5.10
SMILES: COc1ccc(Cl)cc1-c1ccnc(Nc2ccc(N3CCN(C)CC3)c(OC)c2)c1

pIC50 [1]: < 6.00
SMILES: COc1cc(Nc2cc(-c3ccc(C#N)cc3)ccn2)ccc1N1CCOCC1

pIC50 [1]: 8.22
pIC50 [8]: 4.57
inhibition [10]: > 95%
Papp A→B [2]: 16 ×10⁻⁶ cm/s
inhibition [11]: > 95%
inhibition [12]: 50%
inhibition [13]: > 80%
Papp B→A [4]: 14.2 ×10⁻⁶ cm/s
inhibition [14]: > 50%
inhibition [15]: 50%
solubility [5]: 78 µM (≈ 31.2 µg/mL)
inhibition [16]: > 50%
SMILES: COc1cc(Nc2cc(-c3cccc(C#N)c3)ccn2)ccc1N1CCN(C)CC1

pIC50 [1]: 7.20
SMILES: COc1cc(C#N)cc(-c2ccnc(Nc3ccc(N4CCOCC4)c(OC)c3)c2)c1

pIC50 [1]: 7.96
Ratio IC50 [7]: 2400
pIC50 [8]: 4.59
SMILES: COc1ccc(C#N)cc1-c1ccnc(Nc2ccc(N3CCOCC3)cc2)c1

pIC50 [1]: 7.70
SMILES: COc1ccc(Cl)cc1-c1ccnc(Nc2ccc(CCN3CCOCC3)cc2)c1
pIC50 (HeLa): 5.43
pIC50 (HEK293): 7.23
pIC50 (HCT-116): 5.77
pIC50 (DLD-1): 5.96

pIC50 [1]: 6.93
SMILES: COc1ccc(F)cc1-c1ccnc(Nc2ccc(N3CCOCC3)c(OC)c2)c1
